According to PubChem BioAssay AID1996:
Values after ≈ are worked out from the molar mass of the structure shown.

conditions: buffer; pH 7.4; 200.0 µM

SMILES | solubility kinetic [µg/mL]
Cc1cc(Cl)ccc1NC(=S)NCCc1ccc(Cl)cc1 | < 0.4
CCC1(c2ccc(F)cc2)NC(=O)NC1=O (stereo not given) | 28.5 (≈ 128 µM)
CCS(=O)(=O)c1nc2ccccc2n1Cc1ccccn1 | > 45.2
COC(=O)/C=C1/SC(=NC(=O)c2ccc(OC)cc2)NC1=O | 9.2 (≈ 28.7 µM)
Cc1cccc(C(=O)OCC(=O)NCC(C)C)c1O | 13.6 (≈ 51.3 µM)
CCOc1ccc(NC(=O)CNC(=O)c2ccc(OC)cc2)cc1 | 4.1 (≈ 12.5 µM)
O=C(NC(=S)N1CCCC(C(F)(F)F)C1)c1ccc(F)cc1 (stereo not given) | 37.9 (≈ 113 µM)
O=C(CCc1c[nH]c2ccccc12)OCc1cccc(C(F)(F)F)c1 | 1 (≈ 2.88 µM)
O=C(O)c1cccc2c1/C(=N/O)c1ccccc1-2 | > 35.9
O=C(Nc1nc2ccc(Cl)cc2s1)C1CC1 | 4.8 (≈ 19 µM)
CSc1ccc(CN(C)CC(=O)NCc2ccccc2)cc1 | 41 (≈ 130 µM)
O=C(NC1CC1)C1CCN(C(=O)c2ccc(Cl)cc2Cl)CC1 | > 51.2
COC(=O)C1(C(C[N+](=O)[O-])c2ccco2)C(=O)NCC1c1ccccc1 (stereo not given) | 11.1 (≈ 31 µM)
CCN(c1ccccc1)S(=O)(=O)c1ccc(OC)c(NC(=O)c2cc(F)c(F)c(F)c2F)c1 | 0.7 (≈ 1.45 µM)
Cc1ccnc(NC(=O)CCNC(=O)c2ccccc2Cl)c1 | > 47.7
C=CCn1cc(C(=O)OCC)c(=O)c2cc(F)c(F)cc21 | > 44
CC(C)(C)NC(=O)CCCCCCCC(=O)NC(C)(C)C | > 44.8
O=[N+]([O-])c1ccc(Cl)c(CN2CCN(c3ncccn3)CC2)c1 | 35.1 (≈ 105 µM)
CC(=O)Nc1nc(C)c(Oc2ccc(Cl)cc2)c(=O)[nH]1 | 43 (≈ 146 µM)
CNC(=O)c1ccc(NC(=O)Nc2ccccc2)cc1 | 6.6 (≈ 24.5 µM)
CCC(C(=O)NC1CCN(C)CC1)c1ccccc1 (stereo not given) | > 39.1
COc1ccc(NC(=O)c2sc3nc(C)cc(C)c3c2N)cc1 | < 0.2
COCCNC(=O)c1cccc2c1-c1ccccc1C2=O | > 42.2
N#C/C(=C\c1cccc(O)c1)C(=O)N1CCCCC1 | > 38.4

SMILES | solubility kinetic [µg/mL]
CC1=C(C(=O)Nc2ccccc2)S(=O)(=O)CCO1 | 38 (≈ 142 µM)
CCC1Oc2ccccc2N(CC(=O)NC2CCCC2)C1=O (stereo not given) | 42.2 (≈ 140 µM)
O=C(NCc1ccccc1)C1(c2cccc(F)c2)CCCC1 | 12.2 (≈ 41 µM)
CC(C)OC(=O)CSc1nc(Cc2ccccc2)nc2ccccc12 | < 0.4
CN1CCN(c2nc(-c3ccccc3Cl)nc3ccccc23)CC1 | > 50.8
Fc1ccc(C2CCCN2Cc2nc(Cc3ccccc3F)no2)cc1 (stereo not given) | 11.6 (≈ 32.6 µM)
O=C(Nc1ccc(F)cc1F)N1CCCN(c2ccc(C(F)(F)F)cn2)CC1 | 7.3 (≈ 18.2 µM)
CCOC(=O)Cc1csc(NC(=O)COc2ccc(C)cc2)n1 | > 50.2
O=C(O)CC1(CC(=O)N2CCC(C(=O)O)CC2)CCCC1 | 40.6 (≈ 137 µM)
O=c1cc(O)c2c(=O)n(Cc3ccccc3)c3ccccc3c2o1 | 32.6 (≈ 102 µM)
CSc1nc(NS(=O)(=O)c2ccc(F)cc2F)nn1C | > 48
Brc1ccccc1OCCN1CCOCC1.O=C(O)C(=O)O | > 56.4
Cn1nccc1C(=O)N1CCN(c2ccccc2Cl)CC1 | > 45.7
CN(CC(O)Cn1c2ccccc2c2ccccc21)S(C)(=O)=O (stereo not given) | > 49.9
O=C(Nc1ccncc1)c1c(F)c(F)c(F)c(F)c1F | 41.6 (≈ 144 µM)
O=C(Nc1ccc(Cl)cc1Cl)C1CCCO1 (stereo not given) | > 39
COC(=O)C1=C(C)N(C)C(=O)NC1c1ccc(O)c(Cl)c1 (stereo not given) | > 46.6
CCN1C(=O)CSC1=Nc1cccc(C(=O)O)c1 | > 39.6
CNP(=O)(Oc1ccccc1)OC12CC3CC(CC(C3)C1)C2 (stereo not given) | > 48.2
CC(C)CNS(=O)(=O)c1cc2c3c(c1)CCC(=O)N3CCC2 | > 48.4
O=C(COC(=O)COc1ccc2c(c1)CCC2)Nc1ccccc1C(F)(F)F | 5.3 (≈ 13.5 µM)
O=C(NC1CC1)c1nc(Cn2ccc([N+](=O)[O-])n2)no1 | > 41.7
CC1CCN(C(=O)COC(=O)c2cccs2)CC1 | > 40.1
CCOC(=O)Cc1cc(=O)[nH]c(/N=C(\N)Nc2ccc(C)c(C)c2)n1 | 2.1 (≈ 6.12 µM)

SMILES | solubility kinetic [µg/mL]
CCOC(=O)C1CCCN(Cc2cc(=O)oc3cc(C)c(C)cc23)C1 (stereo not given) | 23.1 (≈ 67.3 µM)
Cc1ccc(-c2cc(C(=O)N3CCC4(CC3)OCCO4)no2)cc1 | 44 (≈ 134 µM)
Cc1ccc(CNCC(O)c2ccccc2)s1.Cl (stereo not given) | > 42.6
COc1ccccc1CNC(=O)C1(C)Oc2cccnc2NC1=O (stereo not given) | > 49.1
Cc1ccc(C(=O)NCCCNC(=O)c2ccco2)cn1 | 34.3 (≈ 119 µM)
O=C(Nc1ccccc1F)N1CCc2ccccc2C1 | > 40.5
OCC(O)C1OC(Nc2ccc(Br)cc2)C(O)C1O (stereo not given) | > 50.1
CCN1CCN(C(=O)CN2C(=O)COc3ccc(C)cc32)CC1 | > 47.6
Cc1nc(N2CCN(c3ccccc3F)CC2)[nH]c(=O)c1C | 14.6 (≈ 48.3 µM)
Cc1cc(Cl)c(S(=O)(=O)N2CCCC2)cc1OCC(N)=O | > 49.9
CCNC(=O)c1ccc(CSc2nc3ccccc3s2)cc1 | 6.7 (≈ 20.4 µM)
CCCCOC(=O)c1ccc(NC(=O)C(=O)NCc2ccco2)cc1 | < 0.4
Cc1ncc([N+](=O)[O-])n1Cc1cccc(F)c1 | > 35.3
Clc1ccc(-c2csc(Nc3cccnc3)n2)cc1 | 0.3 (≈ 1.04 µM)
CC1(C)CC2CC(C)(CN2C(=O)COC(=O)c2cccc([N+](=O)[O-])c2)C1 (stereo not given) | > 54.1
Brc1c(-c2ccccc2)nc2n1Cc1ccccc1-2 | 0.6 (≈ 1.93 µM)
CC(Oc1ccccc1Cl)C(=O)N1CCCN(C)CC1 (stereo not given) | > 44.5
O=C(Cc1ccc([N+](=O)[O-])cc1)OCc1c(F)cccc1Cl | < 0.7
Cc1noc(C)c1C(=O)Nc1cc(Cl)ccc1N1CCOCC1 | 13.5 (≈ 40.2 µM)
COc1ccc(NC(=O)c2ccc3nc[nH]c3c2)cc1 | > 40.1
Nc1nonc1C(=O)NCCNC(=O)c1ccc(Cl)cc1 | > 46.5
CC1(C)CC2(C)OCCN2C(=S)N1 (stereo not given) | > 30
COc1ccccc1/C=C(\NC(=O)c1ccccc1)C(=O)NCc1ccco1 | 7 (≈ 18.6 µM)
N#CCCN(C(=O)CSc1nc2ccccc2c(=O)[nH]1)c1ccc(F)cc1 | > 57.4

SMILES | solubility kinetic [µg/mL]
COc1ccccc1NC(=O)COC(=O)c1ccc([N+](=O)[O-])s1 | 5.1 (≈ 15.2 µM)
O=C(COC(=O)c1cccc(O)c1)NCc1ccc2c(c1)OCO2 | > 49.4
CS/C(=C(/C#N)S(=O)(=O)c1ccc(Cl)cc1)N1CCOCC1 | 49.7 (≈ 138 µM)
CCOc1ccccc1NC(=O)Nc1cccc(S(N)(=O)=O)c1 | > 50.3
COc1ccc(Cl)cc1NC(=O)CCN1CCOCC1 | > 44.8
COc1ccc(CCNC(=O)COC(=O)c2ccc(C)s2)cc1 | 27.6 (≈ 82.8 µM)
Cc1ccc(S(=O)(=O)NCCNc2ccc(Br)c(C)c2)cc1 | 0.6 (≈ 1.57 µM)
COc1ccc(N2C(=O)c3ccccc3C2O)cc1 (stereo not given) | > 38.3
CCOC(=O)c1ccc(NC(=O)c2cc(C)nc3ccccc23)cc1 | < 0.4
O=C(NCc1ccco1)/C(=C/c1ccccc1)NC(=O)c1ccco1 | 42.4 (≈ 126 µM)
COc1ccc(OC)c(-c2nc3ccccc3nc2-c2ccccc2)c1 | 0.6 (≈ 1.75 µM)
O=C1CCC(C(=O)Nc2cccc(Br)c2)N1 (stereo not given) | > 42.5
CC(NC(=O)c1ccncc1)c1ccccc1 (stereo not given) | 26.5 (≈ 117 µM)
O=[N+]([O-])c1cccnc1Sc1ccc(Br)cc1 | 1.7 (≈ 5.46 µM)
Cc1cc(C)cc(N2CC(O)Cn3c2nc2c3c(=O)[nH]c(=O)n2C)c1 (stereo not given) | 34.3 (≈ 100 µM)
CCOc1ccccc1CNCc1ccc(F)cc1.Cl | 43.8
CCC(=O)Nc1ccc2nc3c(=O)[nH]c(=S)[nH]c3nc2c1 | > 45.2
c1ccc2[nH]cnc2c1 | > 17.7
Cc1ccc(C(=O)NCc2ccc3c(c2)OCO3)cc1C | 31.7 (≈ 112 µM)
Cc1c(C)n(CCCN(C)C)c2ncnc(Nc3ccc(F)cc3)c12 | 48.7 (≈ 143 µM)
CCNC(=S)NC(=NCc1cccnc1)Nc1nc(C)cc(C)n1 | 46.7 (≈ 136 µM)
Cc1ccc(NC(=O)CN2C(=O)CNC2=O)cc1 | > 37.1
S=c1[nH]c2ccc(Cc3ccc4[nH]c(=S)[nH]c4c3)cc2[nH]1 | 1.7 (≈ 5.44 µM)
O=c1c2ccccc2ncn1-c1ccc([N+](=O)[O-])cc1[N+](=O)[O-] | 2.7 (≈ 8.65 µM)

SMILES | solubility kinetic [µg/mL]
COc1ccc(C)c(NC(=O)C2CC(=O)NC3=C2C(=O)CCC3)c1 (stereo not given) | 47.5 (≈ 145 µM)
Cc1nc2ccc(NS(=O)(=O)c3c(F)cccc3F)cc2s1 | > 51.1
Cc1cccc(CSc2[nH]c(=O)ncc2C)c1 | 15.7 (≈ 63.7 µM)
CC(C)(C)c1ccccc1NC(=O)NC1CCN(Cc2c(F)cccc2Cl)CC1 | 0.5 (≈ 1.2 µM)
Cc1noc(C)c1COc1ccc(C(=O)Nc2ccccc2)cc1 | 0.8 (≈ 2.48 µM)
O=C(Cc1ccc([N+](=O)[O-])cc1)NCC1CCCO1 (stereo not given) | > 39.6
CC1CC(C)CN(C(=O)COC(=O)c2cc3ccccc3oc2=O)C1 (stereo not given) | > 51.5
NCCc1c[nH]c2ccc(OCc3ccccc3)cc12 | 7.8 (≈ 29.3 µM)
Cc1ccccc1C1CCCN(Cc2nc(CC3CC3)no2)C1 (stereo not given) | 24.1 (≈ 77.4 µM)
O=C(c1ncc[nH]1)c1cccs1 | > 26.7
O=C(O)c1c(Cl)nc2ccccn12 | > 29.5
S=C(c1ccc(-c2cccc(Cl)c2)o1)N1CCCCC1 | 6.1 (≈ 19.9 µM)
Cc1ccc(C)c(NC(=S)NC23CN4CN(CN(C4)C2)C3)c1 | > 47.6
O=C1CCC(C(=O)NCc2ccc3c(c2)OCO3)N1 (stereo not given) | > 39.3
CC(=O)c1sc2c(c1N)c(=O)[nH]c(=O)n2-c1ccccc1 | 8.5 (≈ 28.2 µM)
Cc1ccc(C(=O)COC(=O)c2nc(Cl)ccc2Cl)cc1 | 48.4 (≈ 149 µM)
Cc1ccc(NC(=O)CNC(=O)OCc2ccccc2)cc1C | 10.3 (≈ 33 µM)
O=C(CCn1c(=S)oc2ccccc21)NCCC1=CCCCC1 | 0.8 (≈ 2.42 µM)
Cc1ccc(S(=O)(=O)/N=C2/NC(=O)/C(=C\c3ccccc3)S2)cc1 | > 53.8
N#CC1=C(N)N2C(=C(C#N)C13CCCC3)Nc1ccccc12 | 36.9 (≈ 128 µM)
CCOc1ccccc1N1CCN(C(=O)c2cccs2)CC1 | 45.7 (≈ 144 µM)
Cc1ccc(S(=O)(=O)NCC(=O)NNC(=O)c2ccccc2Cl)cc1C | > 59.4
O=C(Nc1cccc(NC(=O)c2ccccc2)n1)c1ccccc1 | 16.8 (≈ 52.9 µM)
CCn1c(=O)c(C(=O)NCc2ccccc2)c(O)c2ccccc21 | < 0.3
